What was measured:
[1] = molecular target: β-hydroxybutyrate dehydrogenase from Pseudomonas lemoignei (Paucimonas lemoignei, UniProt A0A4R3I0R9); assay: Metabolic stability using D-β-hydroxybutyrate dehydrogenase (NADH formation, Km/Vmax); details: for CLint Ratio (NCE/PCE): NCE = Compound 100, 102 or 202, PCE = protio DBHB; for T1/2 Δ (%): [(deuterated species)-(nondeuterated species)](100)/(nondeuterated species); for half-life: b-hydroxybutyrate dehydrogenase, pH 7.8; for Vmax: compound as substrate, NADH formation, Michaelis-Menten non-linear regression, 100 mM Tris pH 7.8; for ^DV: deuterium isotope effect on Vmax versus D-β-hydroxybutyric acid; for ^D(V/K): deuterium isotope effect on Vmax/Km versus D-β-hydroxybutyric acid; for CLint: intrinsic clearance calculated from Vmax and Km
Sequence of β-hydroxybutyrate dehydrogenase from Pseudomonas lemoignei (A0A4R3I0R9 entry or part of it): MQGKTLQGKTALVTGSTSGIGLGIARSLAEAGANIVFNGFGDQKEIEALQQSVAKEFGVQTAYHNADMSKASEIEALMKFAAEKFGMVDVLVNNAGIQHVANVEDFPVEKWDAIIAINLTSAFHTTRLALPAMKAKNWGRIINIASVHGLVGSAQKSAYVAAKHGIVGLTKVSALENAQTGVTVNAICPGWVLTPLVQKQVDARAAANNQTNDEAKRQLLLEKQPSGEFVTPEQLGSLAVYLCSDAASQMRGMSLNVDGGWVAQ
Method: (§1) Materials: β-Hydroxybutyrate Dehydrogenase from Pseudomonas lemoignei, nicotinamide adenine dinucleotide sodium salt (NAD), β-nicotinamide adenine dinucleotide, reduced dipotassium salt (NADH) and Trizma Base were purchased from Sigma-Aldrich.
(§2) Determination of Metabolic Stability of Compounds of the Invention Using D-β-hydroxybutyrate Dehydrogenase: 100 mM Tris pH 7.8 was prepared for assessing catalytic activity and as diluent to form corresponding solutions. Enzyme solution was prepared by dissolving lyophilized β-hydroxybutyrate dehydrogenase from Pseudomonas lemoignei in 100 mM Tris pH 7.8 to a final concentration of 200 Units/mL. The enzyme working stock solution (2 Units/mL) was prepared by dilution of stock solution (200 Units/mL) with 100 mM Tris pH 7.8 buffer. 30 mM NAD stock solution was prepared by dissolving NAD in 100 mM Tris pH 7.8 buffer. […] Working stock solutions of test compounds were prepared over the concentration range of 1 to 40 mM by appropriate dilutions in 100 mM Tris pH 7.8 buffer. 10 mM analytical standard stock solution were prepared by dissolving NADH in 100 mM Tris pH 7.8. Analytical standards were prepared over the concentration range of 0.05 to 1.5 mM by appropriate dilutions in 100 mM Tris pH 7.8. Enzymatic assays were conducted by aliquoting 40 μL of working test compound stock solution, 6 μL of enzyme working stock solution, 178 μL 100 mM Tris pH 7.8 into 96-well white clear bottom plates. The enzymatic assay was initiated by adding 16 μL of 30 mM NAD. The reaction was incubated at 37° C. The progress of each reaction was monitored over 15 minutes by measuring absorbance at […] of all wells every minute using a Perkin Elmer Enspire Multimode plate reader. Blank wells were prepared to subtract background. NADH formation was quantified using NADH analytical standard curve on same 96-well plate used to monitor enzyme activity. All reactions were conducted in triplicate.
(§3) The activity was determined by monitoring the rate of conversion of NAD to NADH by change in absorbance at 340 nm. The appropriate background was subtracted for each concentration and compound investigated and NADH concentration formed was calculated using NADH standard curve. The initial rates (v) for NADH formation as a function of initial test compound concentration (C) to derive Km and Vmax values by non-linear regression using Michaelis-Menten equation using GraphPad Prism 7 for Windows (version 7.03).
(§4) Difference between Vmax, Km and catalytic efficiency (Vmax/Km) for each compound was assessed using unpaired t-test with statistical significance using Holm-Sidak method with α=0.05. The unpaired t-test values were calculated using GraphPad Prism 7 for Windows (version 7.03).
(§5) Intrinsic clearance (CLint) and half-life (t1/2) values were calculated for each test compound using the following equations.

[2] = molecular target: β-hydroxybutyrate dehydrogenase (Paucimonas lemoignei, UniProt A0A4R3I0R9); assay: as above; details: Pseudomonas lemoignei, pH 7.8
Sequence of β-hydroxybutyrate dehydrogenase (A0A4R3I0R9 entry or part of it): as above
Method: as §1, §2, §3, §4, §5

[3] = using Vmax/Km to predict clearance, vs D-β-hydroxybutyric acid, 0.167 mM to 6.7 mM
[4] = vs D-β-hydroxybutyric acid, D-β-Hydroxybutyrate Dehydrogenase Assay

| half-life [2] | SMILES | CLint Ratio (NCE/PCE) [1] | T1/2 Δ (%) [1] | half-life [1] | Vmax ([1]; 0.167 mM to 6.7 mM) | ^DV [1] | ^D(V/K) [1] | CLint [1] | clearance predicted to be increased by, compared to D-β-hydroxybutyric acid [1, 3] | decrease in half-life (T1/2) [1, 4] | clearance predicted to be reduced by, compared to D-β-hydroxybutyric acid [1, 3] | increase in half-life (T1/2) [1, 4] |
| --- | --- | --- | --- | --- | --- | --- | --- | --- | --- | --- | --- | --- |
| – | [2H]C([2H])([2H])[C@@H](O)CC(=O)O [Compound 202, (R)-3-hydroxybutanoic-4,4,4-d3 Acid] | 2.0 | −48.7% | 13.3 min | 0.0330 µmol/mL/min | 0.7 | 0.5 | 0.0520 mL/min | 100% | ~49% | – | – |
| 26 min | C[C@@H](O)CC(=O)O [DBHB, D-β-hydroxybutyric acid, reference compound] | – | – | – | – | – | – | 0.0267 mL/min | – | – | – | – |
| 36.4 min | [2H][C@](C)(O)CC(=O)O [Compound 100, (R)-3-Hydroxybutanoic-3-d1 Acid] | 0.7 | 40.2% | – | – | 1.1 | 1.4 | 0.0190 mL/min | – | – | 30% | 40% |
| – | [2H]C([2H])([2H])[C@@]([2H])(O)CC(=O)O [Compound 102, (R)-3-hydroxybutanoic-3,4,4,4-d4 Acid] | 0.5 | 114% | 55.7 min | 0.0213 µmol/mL/min | 1.0 | 2.1 | 0.0125 mL/min | – | – | 50% | 114% |

— patent US20210008018A1, “DEUTERATED ANALOGS OF D-BETA-HYDROXYBUTYRIC ACID AND USES THEREOF” (Concert Pharmaceuticals, Inc., priority 2018, published 2021)
